Measurements published in article PMC3158827 (ACS chemical biology, 2011).
Non-standard residues stand in square brackets, D forms with d. No end group written: not given here.

Tests used:
thrombin [1] = settings: cited from earlier work
thrombin [2] = settings: cited from earlier work; remark: listed apart in the source
plasma kallikrein = settings: cited from earlier work
trypsin = settings: cited from earlier work
chymotrypsin = experiment: chymotrypsin; settings: 37°C, up to 120 minutes

For bivalirudin, the association rate constant (thrombin [1]) is listed as 4e+08 M⁻¹ s⁻¹, the dissociation rate (thrombin [1]) is listed as 0.8 s⁻¹ and the Ki (thrombin [2]) is listed as 2 nM.

For [dF]PRP, the thrombin inhibition (thrombin [2]; concentrations up to 10 µM) is given as “does not significantly inhibit thrombin”.

For Ecallantide, the Ki (plasma kallikrein) is given as 0.044 nM.

For ω-conotoxin MVIIa, the degradation by trypsin (trypsin) is given as “degraded”.

For GGSCIDGGRLMCGGS, the cleaved bond (chymotrypsin) was “methionine-C”.
